In data set [1] the target is T1, PI3Kγ (p101/p110γ protein) (Homo sapiens, UniProt P48736).
T1 construct: HA; made in house; host or cells: Spodoptera frugiperda (Sf9) cells, baculovirus co-infection
Description: PI3Kγ In Vitro Kinase Assay. In kind it is biochemical. To be noted: purified recombinant p101/p110γ with G protein β1/γ2 subunits; 20 μM ATP, 25 μM PIP2; 20 minutes at room temperature. The method in brief:
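Sf9-expressed, purified human p101/p110γ (2.7 nM) was activated by Gβ1/γ2 (57.7 nM) and reacted with 20 μM ATP plus [γ-32P]ATP on PIP2 (25 μM)/PE (300 μM) micelles with 10 mM MgCl2 in HEPES buffer. Reactions ran 20 min at room temperature. Filter-captured radiolabeled PIP3 was counted by scintillation.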

We go through 30 compounds from US7205295B2, “Benzoxazin-3-ones and derivatives thereof as therapeutic agents” (Warner-Lambert Company LLC, priority 2002, dated 2007).

T1 sequence (P48736 whole entry, species assumed): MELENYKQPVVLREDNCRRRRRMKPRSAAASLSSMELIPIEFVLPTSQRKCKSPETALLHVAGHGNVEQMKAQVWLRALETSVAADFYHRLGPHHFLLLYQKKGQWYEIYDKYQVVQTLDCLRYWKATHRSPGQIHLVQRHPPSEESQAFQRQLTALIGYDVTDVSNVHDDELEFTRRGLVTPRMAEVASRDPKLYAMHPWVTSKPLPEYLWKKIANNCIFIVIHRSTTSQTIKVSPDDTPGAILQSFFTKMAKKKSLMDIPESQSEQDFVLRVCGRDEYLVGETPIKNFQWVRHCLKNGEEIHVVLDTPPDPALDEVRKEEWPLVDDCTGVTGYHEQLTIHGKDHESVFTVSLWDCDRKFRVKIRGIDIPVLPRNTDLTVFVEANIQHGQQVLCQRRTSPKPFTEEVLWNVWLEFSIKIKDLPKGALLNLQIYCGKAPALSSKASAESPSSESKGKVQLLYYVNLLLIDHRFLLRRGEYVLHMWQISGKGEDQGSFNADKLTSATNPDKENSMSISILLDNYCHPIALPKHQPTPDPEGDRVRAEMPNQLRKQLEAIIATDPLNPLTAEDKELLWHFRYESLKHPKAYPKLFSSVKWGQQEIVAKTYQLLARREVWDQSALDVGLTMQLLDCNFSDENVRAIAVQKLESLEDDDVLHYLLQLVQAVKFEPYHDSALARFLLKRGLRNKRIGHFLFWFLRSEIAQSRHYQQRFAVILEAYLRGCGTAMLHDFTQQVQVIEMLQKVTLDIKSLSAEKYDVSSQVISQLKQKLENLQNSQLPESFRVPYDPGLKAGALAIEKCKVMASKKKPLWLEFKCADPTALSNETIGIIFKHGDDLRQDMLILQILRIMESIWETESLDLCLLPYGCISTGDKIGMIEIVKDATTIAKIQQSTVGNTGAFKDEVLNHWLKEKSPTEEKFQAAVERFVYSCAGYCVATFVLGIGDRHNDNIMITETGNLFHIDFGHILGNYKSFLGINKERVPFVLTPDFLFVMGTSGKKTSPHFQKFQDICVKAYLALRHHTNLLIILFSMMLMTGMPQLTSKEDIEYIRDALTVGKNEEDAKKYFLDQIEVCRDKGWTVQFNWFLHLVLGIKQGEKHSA
T1 sequence (Q8WYR1 whole entry partner, species assumed): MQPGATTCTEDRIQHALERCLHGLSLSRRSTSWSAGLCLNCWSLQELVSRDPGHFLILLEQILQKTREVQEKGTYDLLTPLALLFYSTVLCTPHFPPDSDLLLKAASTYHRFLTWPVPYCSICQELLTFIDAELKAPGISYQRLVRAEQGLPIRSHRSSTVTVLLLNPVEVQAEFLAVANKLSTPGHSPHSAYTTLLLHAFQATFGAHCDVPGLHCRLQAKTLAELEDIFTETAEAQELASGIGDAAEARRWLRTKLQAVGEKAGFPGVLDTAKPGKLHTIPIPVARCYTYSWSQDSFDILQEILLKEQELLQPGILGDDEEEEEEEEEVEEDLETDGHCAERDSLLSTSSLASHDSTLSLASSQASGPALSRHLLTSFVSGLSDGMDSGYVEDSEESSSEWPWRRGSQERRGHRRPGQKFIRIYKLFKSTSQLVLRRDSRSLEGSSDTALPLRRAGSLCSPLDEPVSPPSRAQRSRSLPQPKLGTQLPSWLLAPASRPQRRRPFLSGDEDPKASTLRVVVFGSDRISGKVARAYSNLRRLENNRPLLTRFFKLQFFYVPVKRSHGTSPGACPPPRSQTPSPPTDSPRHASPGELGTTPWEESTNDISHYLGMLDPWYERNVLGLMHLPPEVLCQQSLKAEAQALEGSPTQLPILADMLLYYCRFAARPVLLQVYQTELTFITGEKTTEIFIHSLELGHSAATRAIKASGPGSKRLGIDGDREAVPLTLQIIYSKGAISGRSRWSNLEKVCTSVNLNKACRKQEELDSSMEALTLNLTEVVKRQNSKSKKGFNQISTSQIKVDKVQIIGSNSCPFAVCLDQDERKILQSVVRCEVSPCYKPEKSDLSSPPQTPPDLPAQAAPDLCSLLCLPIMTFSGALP

`O=C1NC(=S)SC1=Cc1ccc2c(c1)N(OCc1ccc(Cl)c(Cl)c1)C(=O)CO2` [Example 88, 4-(3,4-Dichloro-benzyloxy)-6-(4-oxo-2-thioxo-thiazolidin-5-ylidenemethyl)-4H-benzo[1,4]oxazin-3-one]: the melting point (in general, the temperature of the solid-liquid transition) was more than 300 °C. Moreover, the 50% inhibitory concentration (IC50) (in general, the concentration that gives 50% inhibition) in data set [1] came to 3 nM.

Compound `Cc1cc(C)cc(CON2C(=O)COc3ccc(C=C4SC(=S)NC4=O)cc32)c1` [Example 89, 4-(3,5-Dimethyl-benzyloxy)-6-(4-oxo-2-thioxo-thiazolidin-5-ylidenemethyl)-4H-benzo[1,4]oxazin-3-one] showed a melting point of more than 300 °C. For the same compound, in data set [1], the IC50 was 4 nM. The like results for `O=C1NC(=S)SC1=Cc1ccc2c(c1)N(OCc1ccccc1)C(=O)CO2` [Example 90, 4-Benzyloxy-6-(4-oxo-2-thioxo-thiazolidin-5-ylidenemethyl)-4H-benzo[1,4]oxazin-3-one] were, in that order, more than 300 °C and 4 nM. For `Cc1cc(C=C2SC(=S)NC2=O)cc2c1OCC(=O)N2Cc1ccc(CN2CCCCC2)cc1` [Example 91, 8-Methyl-6-(4-oxo-2-thioxo-thiazolidin-5-ylidenemethyl)-4-(4-piperidin-1-ylmethyl-benzyl)-4H-benzo[1,4]oxazin-3-one], in that order: 277 to 278 °C and 8 nM. The like results for `CCN(CC)Cc1ccc(CN2C(=O)COc3c(C)cc(C=C4SC(=S)NC4=O)cc32)cc1` [Example 92, 4-(4-Diethylaminomethyl-benzyl)-8-methyl-6-(4-oxo-2-thioxo-thiazolidin-5-ylidenemethyl)-4H-benzo[1,4]oxazin-3-one] were, in that order, 250 to 252 °C and 6 nM.

With `CCN(CC)Cc1ccc(CN2C(=O)COc3ccc(C=C4SC(=O)NC4=O)cc32)cc1` [Example 93, 5-[4-(4-Diethylaminomethyl-benzyl)-3-oxo-3,4-dihydro-2H-benzo[1,4]oxazin-6-ylmethylene]-thiazolidine-2,4-dione], the melting point lay in the range of 244 to 246 °C. The half-inhibitory concentration (IC50) in data set [1] amounted to 16 nM. On to `CC(C)Oc1cc(CN2C(=O)COc3ccc(C=C4SC(=S)NC4=O)cc32)cc(OC(C)C)c1` [Example 94, 4-(3,5-Diisopropoxy-benzyl)-6-(4-oxo-2-thioxo-thiazolidin-5-ylidenemethyl)-4H-benzo[1,4]oxazin-3-one], for which the melting point lay within 245 to 247 °C. Also, the IC50 in data set [1] was found to be 29 nM. In turn, `COc1ccc(C(C)(C)C)cc1CN1C(=O)COc2ccc(C=C3SC(=S)NC3=O)cc21` [Example 95, 4-(5-tert-Butyl-2-methoxy-benzyl)-6-(4-oxo-2-thioxo-thiazolidin-5-ylidenemethyl)-4H-1,4-benzoxazin-3-one] displayed a melting point of 255 to 257 °C. In data set [1], the half-maximal inhibitory concentration (IC50) came out at 225 nM. Compound `Cc1cc(C)c(C)c(CN2C(=O)COc3ccc(C=C4SC(=S)NC4=O)cc32)c1C` [Example 96, 6-(4-Oxo-2-thioxo-thiazolidin-5-ylidenemethyl)-4-(2,3,5,6-tetramethyl-benzyl)-4H-1,4-benzoxazin-3-one] had a melting point of 277 to 280 °C. Moreover, in data set [1], the 50% inhibitory concentration (IC50) came out at 670 nM. `Cc1ccc(CN2C(=O)COc3ccc(C=C4SC(=S)NC4=O)cc32)cc1C` [Example 97, 4-(3,4-Dimethyl-benzyl)-6-(4-oxo-2-thioxo-thiazolidin-5-ylidenemethyl)-4H-1,4-benzoxazin-3-one]: the melting point is more than 300 °C. The IC50 in data set [1] stood at 3 nM. Take `O=C1NC(=S)SC1=Cc1ccc2c(c1)N(Cc1ccc(Cl)s1)C(=O)CO2` [Example 322, 4-(5-Chloro-thiophen-2-ylmethyl)-6-(4-oxo-2-thioxo-thiazolidin-5-ylidenemethyl)-4H-benzo[1,4]oxazin-3-one]: in data set [1], the IC50 was 3 nM. Still for that read-out and setting: for `O=C1NC(=S)SC1=Cc1ccc2c(c1)N(Cc1cnc3ccccc3c1)C(=O)CO2` [Example 323, 6-(4-Oxo-2-thioxo-thiazolidin-5-ylidenemethyl)-4-quinolin-3-ylmethyl-4H-benzo[1,4]oxazin-3-one] the value was 29 nM; for `Cc1cc(CN2C(=O)COc3ccc(C=C4SC(=S)NC4=O)cc32)c(C(F)(F)F)o1` [Example 324, 4-(5-Methyl-2-triflouromethyl-furan-3-ylmethyl)-6-(4-oxo-2-thioxo-thiazolidin-5-ylidenemethyl)-4H-benzo[1,4]oxazin-3-one], 33 nM; for `Cc1cc(CN2C(=O)COc3c(F)cc(C=C4SC(=S)NC4=O)cc32)nn1C(C)(C)C` [Example 325, 4-(1-tert-Butyl-5-methyl-1H-pyrazol-3-ylmethyl)-8-flouro-6-(4-oxo-2-thioxo-thiazolidin-5-ylidenemethyl)-4H-benzo[1,4]oxazin-3-one], 18 nM. Consider `Cc1cc(CN2C(=O)COc3ccc(C=C4SC(=S)NC4=O)cc32)nn1C(C)(C)C` [Example 326, 4-(1-tert-Butyl-5-methyl-1H-pyrazol-3-ylmethyl)-6-(4-oxo-2-hioxo-thiazolidin-5-ylidenemethyl)-4H-benzo[1,4]oxazin-3-one], for which the half-maximal inhibitory concentration (IC50) in data set [1] was determined as 25 nM. Same read-out and setting: then `CC(C)(C)c1cc(CN2C(=O)COc3ccc(C=C4SC(=S)NC4=O)cc32)n(Cc2ccccc2)n1` [Example 327, 4-(2-Benzyl-5-tert-butyl-2H-pyrazol-3-ylmethyl)-6-(4-oxo-2-thioxo-thiazolidin-5-ylidenemethyl)-4H-benzo[1,4]oxazin-3-one], with 245 nM. Same read-out and setting: for `O=C1NC(=S)SC1=Cc1cc(F)c2c(c1)N(Cc1ccc3ncccc3c1)C(=O)CO2` [Example 328, 8-Fluoro-6-(4-oxo-2-thioxo-thiazolidin-5-ylidenemethyl)-4-quinolin-6-ylmethyl-4H-1,4-benzoxazin-3-one] the value was 6 nM; for `Cc1cc(CN2C(=O)COc3ccc(C=C4SC(=S)NC4=O)cc32)nn1C` [Example 329, 4-(1,5-Dimethyl-1H-pyrazol-3-ylmethyl)-6-(4-oxo-2-thioxo-thiazolidin-5-ylidenemethyl)-4H-1,4-benzoxazin-3-one], 28 nM. On the same count and under the same terms, for `O=C1NC(=S)SC1=Cc1cc(F)c2c(c1)N(Cc1cncc(Cl)c1)C(=O)CO2` [Example 330, 4-(5-Chloro-pyridin-3-ylmethyl)-8-fluoro-6-(4-oxo-2-thioxo-thiazolidin-5-ylidenemethyl)-4H-1,4-benzoxazin-3-one] the value was 47 nM. Turning to `CC(C)(O)c1cc(CN2C(=O)COc3c(F)cc(C=C4SC(=S)NC4=O)cc32)ccc1Cl` [Example 331, 4-[4-Chloro-3-(1-hydroxy-1-methyl-ethyl)-benzyl]-8-fluoro-6-(4-oxo-2-thioxo-thiazolidin-5-ylidenemethyl)-4H-1,4-benzoxazin-3-one; Compound with Ethane-1,2-diamine], the half-maximal inhibitory concentration (IC50) in data set [1] came to 9 nM. On the same count and under the same terms, for `CC(C)(O)c1cc(CN2C(=O)COc3ccc(C=C4SC(=S)NC4=O)cc32)ccc1Cl` [Example 332, 4-[4-Chloro-3-(1-hydroxy-1-methyl-ethyl)-benzyl]-6-(4-oxo-2-thioxo-thiazolidin-5-ylidenemethyl)-4H-1,4-benzoxazin-3-one; compound with ethane-1,2-diamine] the value was 7 nM; for `O=C1NC(=S)SC1=Cc1ccc2c(c1)N(Cc1cccs1)C(=O)CO2` [Example 333, 6-(4-Oxo-2-thioxo-thiazolidin-5-ylidenemethyl)-4-thiophen-2-ylmethyl-4H-1,4-benzoxazin-3-one], 7 nM. The same measure, in the same setting: then `Cc1cncc(CN2C(=O)COc3ccc(C=C4SC(=S)NC4=O)cc32)c1` [Example 334, 4-(5-Methyl-pyridin-3-ylmethyl)-6-(4-oxo-2-thioxo-thiazolidin-5-ylidenemethyl)-4H-1,4-benzoxazin-3-one], with 25 nM; and `CC(C)n1cnc2cc(CN3C(=O)COc4ccc(C=C5SC(=S)NC5=O)cc43)ccc21` [Example 335, 4-(1-Isopropyl-1H-benzimidazol-5-ylmethyl)-6-(4-oxo-2-thioxo-thiazolidin-5-ylidenemethyl)-4H-1,4-benzoxazin-3-one], with 34 nM; and `CC(C)n1cnc2ccc(CN3C(=O)COc4ccc(C=C5SC(=S)NC5=O)cc43)cc21` [Example 336, 4-(3-Isopropyl-3H-benzimidazol-5-ylmethyl)-6-(4-oxo-2-thioxo-thiazolidin-5-ylidenemethyl)-4H-1,4-benzoxazin-3-one], with 9 nM. Same read-out and setting: then `O=C1NC(=S)SC1=Cc1ccc2c(c1)N(Cc1ccc3ncccc3c1)C(=O)CO2` [Example 337, 6-(4-Oxo-2-thioxo-thiazolidin-5-ylidenemethyl)-4-quinolin-6-ylmethyl-4H-1,4-benzoxazin-3-one], with 8 nM. For `O=C1NC(=O)C(=Cc2ccc3c(c2)N(Cc2ccoc2)C(=O)CO3)S1` [Example 338, 5-(4-Furan-3-ylmethyl-3-oxo-3,4-dihydro-2H-1,4-benzoxazin-6-ylmethylene)-thiazolidine-2,4-dione], the 50% inhibitory concentration (IC50) in data set [1] worked out at 12 nM. The same measure, in the same setting: then `Cc1cc(CN2C(=O)COc3ccc(C=C4SC(=S)NC4=O)cc32)n(C)n1` [Example 339, 4-(2,5-Dimethyl-2H-pyrazol-3-ylmethyl)-6-(4-oxo-2-thioxo-thiazolidin-5-ylidenemethyl)-4H-1,4-benzoxazin-3-one], with 80 nM. Take `O=C1NC(=S)SC1=Cc1ccc2c(c1)N(Cc1ccoc1)C(=O)CO2` [Example 340, 4-Furan-3-ylmethyl-6-(4-oxo-2-thioxo-thiazolidin-5-ylidenemethyl)-4H-1,4-benzoxazin-3-one]: the IC50 in data set [1] amounted to 13 nM. With `O=C1NC(=S)S/C1=C\c1cc(F)c2c(c1)N(Cc1ccc(Cl)c(Cl)c1)C(=O)CO2` [Example 341, 4-(3,4-Dichloro-benzyl)-8-fluoro-6-[4-oxo-2-thioxo-thiazolidin-(5Z)-ylidenemethyl]-4H-benzo[1,4]oxazin-3-one], the 50% inhibitory concentration (IC50) in data set [1] stood at 3 nM.
